Data on 18 molecules can be found in ChEMBL document CHEMBL4715892, “Synthesis of novel quinoxaline-alkynyl derivatives and their anti-Mycobacterium tuberculosis activity” (Bioorg Med Chem Lett, 2021).

By MIC90 is commonly meant an inhibitory concentration at the 90% level, which refers to growth in some studies and to a panel of isolates in others. The IC50 is the concentration needed to halve the response being measured.

The subject of series [1] is Mycobacterium tuberculosis. Description: Antitubercular activity against Mycobacterium tuberculosis H37Rv assessed as reduction in microbial growth after 7 to 14 days by broth dilution method. The class given is functional. Particulars: time 7-14 day. In general terms: Broth dilution looks for growth in wells or tubes with falling amounts of substance.
Another series concerns RAW264.7. The series is described as follows: Cytotoxicity against mouse RAW264.7 cells assessed as reduction in cell viability up to 24 hrs by MTT assay. It counts as cell-based. To be noted: RAW264.7, 24 h.
The nature of series [2]: Selectivity index ratio of IC50 for cytotoxicity against mouse RAW264.7 cells to MIC90 for antitubercular activity against Mycobacterium tuberculosis H37Rv. The class given is toxicity, cell-based. Particulars: read-out: Selectivity Index.

Consider `O=C(OCC#Cc1cnc2cc(Cl)ccc2n1)c1cccs1`, for which, in series [1], the MIC90 came out at 11.2 µM. Besides, the 50% inhibitory concentration (IC50) in the series on RAW264.7 turned out to be 11.3 µM. The selectivity ratio in series [2] amounted to 1.

With `O=C(OCC#Cc1cnc2cc([N+](=O)[O-])ccc2n1)c1cccs1`, the MIC90 in series [1] worked out at 2.74 µM. Further, the IC50 in the series on RAW264.7 was determined as 19.9 µM. Moreover, the selectivity ratio in series [2] came out at 7.24.

Take `CC(=O)OCC#Cc1cnc2cc([N+](=O)[O-])ccc2n1`: in series [1], the MIC90 stood at 1.8 µM. For the same molecule, the IC50 in the series on RAW264.7 came to 13.2 µM. Besides, the selectivity ratio in series [2] stood at 7.3.

For the molecule `OCC#Cc1cnc2cc(Cl)ccc2n1`, the MIC90 in series [1] was 15.9 µM. Further, the 50% inhibitory concentration (IC50) in the series with RAW264.7 is 35.3 µM. The selectivity ratio in series [2] came to 2.22.

For `O=C(OCC#Cc1cnc2ccccc2n1)c1ccccc1`, in series [1], the MIC90 came out at 16.2 µM. For the same molecule, the IC50 in the series on RAW264.7 is 55.6 µM. In addition, the selectivity ratio in series [2] is 3.4.

Regarding `O=CC#Cc1cnc2ccccc2n1`, the MIC90 in series [1] came out at 4.55 µM. The half-maximal inhibitory concentration (IC50) in the series with RAW264.7 stood at 316 µM. Further, in series [2], the selectivity ratio was 69.5.

For the molecule `CS(=O)(=O)OCC#Cc1cnc2cc(Cl)ccc2n1`, the MIC90 in series [1] stood at 54.5 µM.

For `CC(=O)OCC#Cc1cnc2cc(Cl)ccc2n1`, the MIC90 in series [1] came out at 16.5 µM. Moreover, in the series with RAW264.7, the IC50 was 20.2 µM. The selectivity ratio in series [2] was 1.22.

With `O=C(OCC#Cc1cnc2cc([N+](=O)[O-])ccc2n1)c1ccccc1`, the MIC90 in series [1] was determined as 93.8 µM. The IC50 in the series on RAW264.7 was 248 µM. In addition, in series [2], the selectivity ratio was 2.6.

Regarding `O=C(OCC#Cc1cnc2ccccc2n1)c1cccs1`, the MIC90 in series [1] was 27 µM. Also, in the series with RAW264.7, the IC50 came out at 39 µM. Also, in series [2], the selectivity ratio was 1.44.

As for `CC(=O)OCC#Cc1cnc2ccccc2n1`, the MIC90 in series [1] came to 18.1 µM. Moreover, in the series with RAW264.7, the 50% inhibitory concentration (IC50) worked out at 47.7 µM. Besides, in series [2], the selectivity ratio was determined as 2.64.

On to `CS(=O)(=O)OCC#Cc1cnc2ccccc2n1`, for which the MIC90 in series [1] came to 6.47 µM. Besides, the 50% inhibitory concentration (IC50) in the series with RAW264.7 is 36.8 µM. Also, the selectivity ratio in series [2] amounted to 5.7.

Regarding `O=C(OCC#Cc1cnc2cc(Cl)ccc2n1)c1ccccc1`, the MIC90 in series [1] was 57.6 µM. Also, the IC50 with RAW264.7 is 82.3 µM. For the same molecule, the selectivity ratio in series [2] stood at 1.43.

`O=CC#Cc1cnc2cc(Cl)ccc2n1`: the MIC90 in series [1] was 1.13 µM. Besides, in the series with RAW264.7, the IC50 came out at 4.6 µM. Also, the selectivity ratio in series [2] amounted to 4.1.

With `O=[N+]([O-])c1ccc2nc(C#CCO)cnc2c1`, the MIC90 in series [1] was 4.26 µM. Further, the IC50 with RAW264.7 was 31.2 µM. In series [2], the selectivity ratio amounted to 7.3.

Take `CS(=O)(=O)OCC#Cc1cnc2cc([N+](=O)[O-])ccc2n1`: in series [1], the MIC90 was 1.59 µM. Further, the IC50 in the series on RAW264.7 came out at 13.5 µM. For the same molecule, the selectivity ratio in series [2] was found to be 8.5.

In the case of `OCC#Cc1cnc2ccccc2n1`, the MIC90 in series [1] was determined as 52.7 µM. Moreover, the IC50 in the series on RAW264.7 was 43.7 µM. Also, in series [2], the selectivity ratio came out at 0.83.

For `CO[C@H]1/C=C/O[C@@]2(C)Oc3c(C)c(O)c4c(O)c(c(/C=N/N5CCN(C)CC5)c(O)c4c3C2=O)NC(=O)/C(C)=C\C=C\[C@H](C)[C@H](O)[C@@H](C)[C@@H](O)[C@@H](C)[C@H](OC(C)=O)[C@@H]1C` [RIFAMPIN], the MIC90 in series [1] is 0.01 µM.
